Data from PubChem BioAssay (NCI).
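Here, GI50 denotes the concentration required for 50% inhibition of growth. TGI marks complete inhibition of growth.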

Key:
Assay in all cases: inhibition of tumour cell growth, NCI panel, 384-well format
NCI-H23 lung = test system: NCI-H23 lung
A549 NSCLC = test system: A549 NSCLC
SF-295 CNS = test system: SF-295 CNS
COLO 205 colon = test system: COLO 205 colon
SNB-19 CNS = test system: SNB-19 CNS
LOX IMVI melanoma = test system: LOX IMVI melanoma
HS 578T breast = test system: HS 578T breast
HT29 colon = test system: HT29 colon
NCI/ADR-RES ovarian = test system: NCI/ADR-RES ovarian
SK-MEL-5 melanoma = test system: SK-MEL-5 melanoma
A498 renal = test system: A498 renal
DU-145 prostate = test system: DU-145 prostate
HCT-15 colon = test system: HCT-15 colon
RXF 393 renal = test system: RXF 393 renal
T-47D breast = test system: T-47D breast
RPMI-8226 leukemia = test system: RPMI-8226 leukemia
SN12C renal = test system: SN12C renal
KM12 colon = test system: KM12 colon
ACHN renal = test system: ACHN renal
HCT-116 colon = test system: HCT-116 colon
SNB-75 CNS = test system: SNB-75 CNS
TK-10 renal = test system: TK-10 renal
OVCAR-4 ovarian = test system: OVCAR-4 ovarian
MDA-MB-435 melanoma = test system: MDA-MB-435 melanoma
MCF7 breast = test system: MCF7 breast
M14 melanoma = test system: M14 melanoma
BT-549 breast = test system: BT-549 breast
EKVX NSCLC = test system: EKVX NSCLC
SR leukemia = test system: SR leukemia
NCI-H322M lung = test system: NCI-H322M lung
U251 glioblastoma = test system: U251 glioblastoma
MDA-MB-231 breast = test system: MDA-MB-231 breast
SF-539 CNS = test system: SF-539 CNS
CAKI-1 renal = test system: CAKI-1 renal
MDA-MB-468 breast = test system: MDA-MB-468 breast
PC-3 prostate = test system: PC-3 prostate
MOLT-4 leukemia = test system: MOLT-4 leukemia
UACC-62 melanoma = test system: UACC-62 melanoma
SK-OV-3 ovarian = test system: SK-OV-3 ovarian
SK-MEL-28 melanoma = test system: SK-MEL-28 melanoma
OVCAR-3 ovarian = test system: OVCAR-3 ovarian
OVCAR-8 ovarian = test system: OVCAR-8 ovarian
OVCAR-5 ovarian = test system: OVCAR-5 ovarian
HOP-62 NSCLC = test system: HOP-62 NSCLC
HCC-2998 colon = test system: HCC-2998 colon
NCI-H226 lung = test system: NCI-H226 lung
HL-60(TB) leukemia = test system: HL-60(TB) leukemia
SF-268 CNS = test system: SF-268 CNS
NCI-H522 lung = test system: NCI-H522 lung
NCI-H460 NSCLC = test system: NCI-H460 NSCLC
IGROV1 ovarian = test system: IGROV1 ovarian
UACC-257 melanoma = test system: UACC-257 melanoma
HOP-92 NSCLC = test system: HOP-92 NSCLC
MALME-3M melanoma = test system: MALME-3M melanoma

SMILES: NC(=O)c1ccc(N(C(N)=O)c2c(F)cccc2F)nc1-c1ccc(F)cc1F
- GI50 (NCI-H23 lung): > 100 µM
- TGI (NCI-H23 lung): > 100 µM
- GI50 (A549 NSCLC): > 100 µM
- TGI (A549 NSCLC): > 100 µM
- GI50 (SF-295 CNS): > 100 µM
- TGI (SF-295 CNS): > 100 µM
- GI50 (COLO 205 colon): > 100 µM
- TGI (COLO 205 colon): > 100 µM
- GI50 (SNB-19 CNS): > 100 µM
- TGI (SNB-19 CNS): > 100 µM
- GI50 (LOX IMVI melanoma): > 100 µM
- TGI (LOX IMVI melanoma): > 100 µM
- GI50 (HS 578T breast): > 100 µM
- TGI (HS 578T breast): > 100 µM
- GI50 (HT29 colon): > 100 µM
- TGI (HT29 colon): > 100 µM
- GI50 (NCI/ADR-RES ovarian): > 100 µM
- TGI (NCI/ADR-RES ovarian): > 100 µM
- GI50 (SK-MEL-5 melanoma): > 100 µM
- TGI (SK-MEL-5 melanoma): > 100 µM
- GI50 (A498 renal): > 100 µM
- TGI (A498 renal): > 100 µM
- GI50 (DU-145 prostate): > 100 µM
- TGI (DU-145 prostate): > 100 µM
- GI50 (HCT-15 colon): > 100 µM
- TGI (HCT-15 colon): > 100 µM
- GI50 (RXF 393 renal): > 100 µM
- TGI (RXF 393 renal): > 100 µM
- GI50 (T-47D breast): > 100 µM
- TGI (T-47D breast): > 100 µM
- GI50 (RPMI-8226 leukemia): > 100 µM
- TGI (RPMI-8226 leukemia): > 100 µM
- GI50 (SN12C renal): > 100 µM
- TGI (SN12C renal): > 100 µM
- GI50 (KM12 colon): > 100 µM
- TGI (KM12 colon): > 100 µM
- GI50 (ACHN renal): > 100 µM
- TGI (ACHN renal): > 100 µM
- GI50 (HCT-116 colon): > 100 µM
- TGI (HCT-116 colon): > 100 µM
- GI50 (SNB-75 CNS): > 100 µM
- TGI (SNB-75 CNS): > 100 µM
- GI50 (TK-10 renal): > 100 µM
- TGI (TK-10 renal): > 100 µM
- GI50 (OVCAR-4 ovarian): > 100 µM
- TGI (OVCAR-4 ovarian): > 100 µM
- GI50 (MDA-MB-435 melanoma): > 100 µM
- TGI (MDA-MB-435 melanoma): > 100 µM
- GI50 (MCF7 breast): > 100 µM
- TGI (MCF7 breast): > 100 µM
- GI50 (M14 melanoma): > 100 µM
- TGI (M14 melanoma): > 100 µM
- GI50 (BT-549 breast): > 100 µM
- TGI (BT-549 breast): > 100 µM
- GI50 (EKVX NSCLC): > 100 µM
- TGI (EKVX NSCLC): > 100 µM
- GI50 (SR leukemia): 98.2 µM
- TGI (SR leukemia): > 100 µM
- GI50 (NCI-H322M lung): > 100 µM
- TGI (NCI-H322M lung): > 100 µM
- GI50 (U251 glioblastoma): > 100 µM
- TGI (U251 glioblastoma): > 100 µM
- GI50 (MDA-MB-231 breast): > 100 µM
- TGI (MDA-MB-231 breast): > 100 µM
- GI50 (SF-539 CNS): > 100 µM
- TGI (SF-539 CNS): > 100 µM
- GI50 (CAKI-1 renal): > 100 µM
- TGI (CAKI-1 renal): > 100 µM
- GI50 (MDA-MB-468 breast): > 100 µM
- TGI (MDA-MB-468 breast): > 100 µM
- GI50 (PC-3 prostate): > 100 µM
- TGI (PC-3 prostate): > 100 µM
- GI50 (MOLT-4 leukemia): > 100 µM
- TGI (MOLT-4 leukemia): > 100 µM
- GI50 (UACC-62 melanoma): > 100 µM
- TGI (UACC-62 melanoma): > 100 µM
- GI50 (SK-OV-3 ovarian): > 100 µM
- TGI (SK-OV-3 ovarian): > 100 µM
- GI50 (SK-MEL-28 melanoma): > 100 µM
- TGI (SK-MEL-28 melanoma): > 100 µM
- GI50 (OVCAR-3 ovarian): > 100 µM
- TGI (OVCAR-3 ovarian): > 100 µM
- GI50 (OVCAR-8 ovarian): > 100 µM
- TGI (OVCAR-8 ovarian): > 100 µM
- GI50 (OVCAR-5 ovarian): > 100 µM
- TGI (OVCAR-5 ovarian): > 100 µM
- GI50 (HOP-62 NSCLC): > 100 µM
- TGI (HOP-62 NSCLC): > 100 µM
- GI50 (HCC-2998 colon): > 100 µM
- TGI (HCC-2998 colon): > 100 µM
- GI50 (NCI-H226 lung): > 100 µM
- TGI (NCI-H226 lung): > 100 µM
- GI50 (HL-60(TB) leukemia): > 100 µM
- TGI (HL-60(TB) leukemia): > 100 µM
- GI50 (SF-268 CNS): > 100 µM
- TGI (SF-268 CNS): > 100 µM
- GI50 (NCI-H522 lung): > 100 µM
- TGI (NCI-H522 lung): > 100 µM
- GI50 (NCI-H460 NSCLC): > 100 µM
- TGI (NCI-H460 NSCLC): > 100 µM
- GI50 (IGROV1 ovarian): > 100 µM
- TGI (IGROV1 ovarian): > 100 µM
- GI50 (UACC-257 melanoma): > 100 µM
- TGI (UACC-257 melanoma): > 100 µM
- GI50 (HOP-92 NSCLC): > 100 µM
- TGI (HOP-92 NSCLC): > 100 µM
- GI50 (MALME-3M melanoma): > 100 µM
- TGI (MALME-3M melanoma): > 100 µM
